Test results reported in patent US11058680B2, “Combinations of opioid/TLR4 antagonists and acetaminophen for use in the treatment of emotional pain and insomnia” (Allodynic Threapeutics, LLC, priority 2016, dated 2021).

Test system: insomnia
Assay: Migraine open-label pilot study: insomnia on 4-point scale, night before vs. night after dosing (insomnia-free, insomnia intensity)
Assay type: in vivo, human
Details: for Change in insomnia-free / Change in insomnia-intensity: baseline to night after dosing; for Insomnia-intensity at baseline / Insomnia-intensity at night after dosing: sum of severity of all patients
Description: Sixteen unique patients were enrolled in an open phase pilot study for the acute treatment of migraine attacks, insomnia, and emotional pain. Of the sixteen patients, eleven were evaluated for one migraine attack, one for two attacks, two for four attacks, one for six attacks, and one for fourteen attacks. A total of forty-one […] treatments were evaluated. Patients received a single dose of one of the following treatment options:
The majority of the patients remained in the clinic for observation for 2 hours after dosing. They completed headache diary assessments immediately before and after dosing at time points: 7, 15, and 30 minutes; and 1, 1.5, 2, 3, 6, 12, 24, and 48 hours. Headache pain was assessed on a 4-point scale (0=none; 1=mild; 2=moderate; 3=severe). The assessment of photophobia, phonophobia, nausea, and neck/shoulder pain was assessed as present or absent. The assessment of emotional pain was recorded on a 4-point scale (0=none, 1=mild, 2=moderate, 3=severe). The assessment of difficulty sleeping or falling asleep (insomnia) was assessed on a 4-point scale (0=none, 1=mild, 2=moderate, 3=severe) at baseline, for the night before treatment and for the following nights at 24, and 48 hours. Patients recorded side effects severity at each time point. Patients recorded the time of the first rescue medication dose and all additional headache medications used within 48 hours. Patients were required to stay awake to record their assessments in the first 2 hours, sleeping was permitted thereafter. While asleep, assessments were completed according to patients' best estimation. For data analysis, it was assumed that a migraine attack is a unique patient. Patients were asked to specify (yes or no answer) to whether they experienced emotional pain symptoms such as: hurt feelings, sadness, fear, or anger. Patients who replied positively to having emotional pain were asked to specify the cause into one of the following options: relationship, work/school, money/debt, health, or loss/grief.

[1] = NTX/APAP 2.25 mg/325 mg, NTX 2.25 mg
[2] = NTX/APAP 3.25 mg/325 mg, NTX 3.25 mg
[3] = night after dosing, NTX/APAP 2.25 mg/325 mg, NTX 2.25 mg
[4] = night after dosing, NTX/APAP 3.25 mg/325 mg, NTX 3.25 mg
[5] = night after dosing, NTX/APAP 5 mg/325 mg, NTX 5 mg
[6] = night after dosing, NTX/APAP […]325 mg, NTX 1.5 mg
[7] = night after dosing, naltrexone/acetaminophen 2.25 mg/325 mg (N=21), naltrexone 2.25 mg (N=9)

In the case of `O=C1CC[C@@]2(O)[C@H]3Cc4ccc(O)c5c4[C@@]2(CCN3CC2CC2)[C@H]1O5` [naltrexone], the Insomnia-free (24 h, combined doses) is reported as 11 (69) n (%), the Insomnia-free (24 h time point = night following the day of initial dosing, NTX/APAP 2.25 mg/325 mg, NTX 2.25 mg) is reported as 6 (66) n (%) and the Insomnia-free (24 h time point = night following the day of initial dosing, NTX/APAP 3.25 mg/325 mg, NTX 3.25 mg) is reported as 2 (66) n (%). The Insomnia-free (24 h time point = night following the day of initial dosing, NTX/APAP 5 mg/325 mg, NTX 5 mg) was 1 (100) n (%), the Insomnia-free (24 h time point = night following the day of initial dosing, NTX/APAP […]325 mg, NTX 1.5 mg) was 2 (66) n (%) and the Insomnia-free (48 h, NTX/APAP 2.25 mg/325 mg, NTX 2.25 mg) was 8 (88) n (%). For the same molecule, the Insomnia-free (48 h, NTX/APAP 5 mg/325 mg, NTX 5 mg) was 1 (100) n (%), the Insomnia-free (48 h, combined doses) was 2 (13) n (%) and the Change in insomnia-free [1] was “+2 (22) n (%)”. The Change in insomnia-intensity [1] was −10 (−111) n (%), the Change in insomnia-free [2] was “+1 n (%)” and the Change in insomnia-intensity [2] was −1 (−50) n (%). For the same molecule, the Change in insomnia-free (NTX/APAP 5 mg/325 mg, NTX 5 mg) was 0 n (%), the Change in insomnia-intensity (NTX/APAP 5 mg/325 mg, NTX 5 mg) was “+2 (+200) n (%)” and the Change in insomnia-free (NTX/APAP […]325 mg, NTX 1.5 mg) was 0 n (%). For the same molecule, the Change in insomnia-intensity (NTX/APAP […]325 mg, NTX 1.5 mg) was −2 (−66) n (%), the Insomnia-free at baseline [1] was 4 (44) n (%) and the Insomnia-free at baseline [2] was 1 n (%). For the same molecule, the Insomnia-free at baseline (NTX/APAP 5 mg/325 mg, NTX 5 mg) was 0 n (%), the Insomnia-free at baseline (NTX/APAP […]325 mg, NTX 1.5 mg) was 2 n (%) and the “Insomnia-free at night after dosing” value [3] was 6 (66) n (%). The “Insomnia-free at night after dosing” value [4] was 2 (66) n (%), the “Insomnia-free at night after dosing” value [5] was 0 n (%) and the “Insomnia-free at night after dosing” value [6] was 2 n (%). The “insomnia intensity change from baseline” value [7] was −111%, the “insomnia-free change from baseline” value [7] was 22% and the “insomnia intensity improved by” value (night before vs. night after treatment, naltrexone 2.25 mg (n=9)) was 111%. The Insomnia-intensity at baseline [1] was 14 (155) n (%), the Insomnia-intensity at baseline [2] was 2 n (%) and the Insomnia-intensity at baseline (NTX/APAP 5 mg/325 mg, NTX 5 mg) was 1 n (%). The Insomnia-intensity at baseline (NTX/APAP […]325 mg, NTX 1.5 mg) was 3 n (%), the “Insomnia-intensity at night after dosing” value [3] was 4 (44) n (%) and the “Insomnia-intensity at night after dosing” value [4] was 1 n (%). The “Insomnia-intensity at night after dosing” value [5] was 3 n (%) and the “Insomnia-intensity at night after dosing” value [6] was 1 n (%).
